According to patent US20230067378A1, “COMPOSITIONS AND METHODS FOR THE TREATMENT OF ESTROGEN-DEPENDENT DISORDERS” (ObsEva S.A., priority 2018, published 2023):

Tested on: pre-menopausal women
Test: uterine bleeding pattern, clinical trial of compound (VI) 200 mg per day (choline salt) with add-back therapy (1.0 mg E2, 0.5 mg norethindrone acetate)
Format: in vivo, human
Method: The experiments described in this example were conducted as part of a single-center, open-label, randomized, parallel-group clinical trial in 32 pre-menopausal women. Following screening assessments, and during the second half of the menstrual cycle, women received norethindrone (5 mg, three-times daily for 10 days) to synchronize menstrual cycles. After menstrual cycle synchronization, subjects were randomized with a 1:1 ratio to one of two treatment arms: (i) a cohort receiving once-daily administration of compound (VI) (200 mg per day, administered in the form of a choline salt) with concurrent onset of add-back therapy administration for 10 weeks (“Concurrent-ABT”), or (ii) a cohort receiving pre-treatment with compound (VI) (200 mg per day, administered in the form of a choline salt) for 4 weeks followed by combined daily administration of compound (VI) and add-back therapy (“Delayed-ABT”). The add-back therapy used in these experiments contained 1.0 mg of E2 and 0.5 mg of norethindrone acetate, and was administered to subjects once daily.
The main treatment outcomes and endpoints measured during these experiments included (i) a qualitative assessment of uterine blood loss, which was recorded on a daily basis throughout the study by characterizing each subject's bleeding pattern using one of the following four categories: “no bleeding,” “spotting” (light staining, dark blood, no sanitary protection needed or only panty liner), “bleeding” (1-4 completely soiled maxi sanitary towels or 1-8 soiled tampons or equivalent combination of the two), or “heavy bleeding” (>4 completely soiled maxi sanitary towels or >8 soiled tampons or equivalent combination of the two); (ii) a bi-weekly assessment of each subject's circulating E2 concentration; (iii) a bi-weekly assessment of each subject's circulating progesterone concentration (measured using a validated commercial chemiluminescence immunoassay method (Elecsys Progesterone III, Roche, Burgess Hill, UK)); (iv) the pharmacokinetic profile of compound (VI) and the add-back therapy; and (v) adverse events.

[1] = Concurrent-ABT group, first half of treatment
[2] = Concurrent-ABT group, second half of the treatment period
[3] = Days 1-14, treatment A (Concurrent-ABT), N=16
[4] = Days 1-14, treatment B (Delayed-ABT), N=16
[5] = Days 15-28, Overall (A+B), N=32
[6] = Days 15-28, treatment A (Concurrent-ABT), N=16
[7] = Days 15-28, treatment B (Delayed-ABT), N=16
[8] = Days 29-42, Overall (A+B), N=29
[9] = Days 29-42, treatment A (Concurrent-ABT), N=14

SMILES: COc1cc(F)c(-n2c(=O)[nH]c3csc(C(=O)O)c3c2=O)cc1OCc1c(OC)ccc(F)c1F [Compound (VI), 3-[2-fluoro-5-(2,3-difluoro-6-methoxybenzyloxy)4-methoxyphenyl]-2,4-dioxo-1,2,3,4-tetrahydrothieno [3,4d]pyrimidine-5-carboxylic acid]
- women who had reached amenorrhea within 5 days of treatment (Concurrent-ABT group): ~40%
- bleeding, frequency [1]: ≤ 4%
- spotting, frequency [1]: ≤ 10%
- women in complete amenorrhea (no bleeding) (Concurrent-ABT group, last 4 weeks of treatment): ~80%
- amenorrhea, frequency [2]: up to 98%
- bleeding, frequency [2]: less than 3%
- spotting, frequency [2]: 1-5%
- Uterine Bleeding Pattern (Concurrent-ABT, Weeks 2-4): Spotting and bleeding generally decreased over time
- Uterine Bleeding Pattern: Bleeding (Concurrent-ABT, Weeks 2-4): Bleeding: ≤4%
- Uterine Bleeding Pattern: Spotting (Concurrent-ABT, Weeks 2-4): Spotting: ≤8%
- Uterine Bleeding Pattern: Bleeding (Concurrent-ABT, Weeks 7-10): Bleeding: ≤2%
- Uterine Bleeding Pattern: Spotting (Concurrent-ABT, Weeks 7-10): Spotting: 1-5%
- Uterine Bleeding Pattern: amenorrhea (Concurrent-ABT, Weeks 7-10): Amenorrhea: Up to 98%
- No Bleeding or Spotting, subjects (%), Plasma Estradiol Level 20-50 pg/mL (Days 1-14, Overall (A+B), N=32): (9.4%)
- No Bleeding or Spotting, subjects (%), Plasma Estradiol Level <20 pg/mL (Days 1-14, Overall (A+B), N=32): (15.6%)
- No Bleeding or Spotting, subjects (%), Plasma Estradiol Level >50 pg/mL (Days 1-14, Overall (A+B), N=32): (3.1%)
- No Bleeding or Spotting, subjects (n), Plasma Estradiol Level 20-50 pg/mL (Days 1-14, Overall (A+B), N=32): 3
- No Bleeding or Spotting, subjects (n), Plasma Estradiol Level <20 pg/mL (Days 1-14, Overall (A+B), N=32): 5
- No Bleeding or Spotting, subjects (n), Plasma Estradiol Level >50 pg/mL (Days 1-14, Overall (A+B), N=32): 1
- No Bleeding, subjects (%), Plasma Estradiol Level 20-50 pg/mL (Days 1-14, Overall (A+B), N=32): (0.0%)
- No Bleeding, subjects (%), Plasma Estradiol Level <20 pg/mL (Days 1-14, Overall (A+B), N=32): (3.1%)
- No Bleeding, subjects (%), Plasma Estradiol Level >50 pg/mL (Days 1-14, Overall (A+B), N=32): (3.1%)
- No Bleeding, subjects (n), Plasma Estradiol Level 20-50 pg/mL (Days 1-14, Overall (A+B), N=32): 0
- No Bleeding, subjects (n), Plasma Estradiol Level <20 pg/mL (Days 1-14, Overall (A+B), N=32): 1
- No Bleeding, subjects (n), Plasma Estradiol Level >50 pg/mL (Days 1-14, Overall (A+B), N=32): 1
- No Bleeding or Spotting, subjects (%), Plasma Estradiol Level 20-50 pg/mL [3]: (18.8%)
- No Bleeding or Spotting, subjects (%), Plasma Estradiol Level <20 pg/mL [3]: (0.0%)
- No Bleeding or Spotting, subjects (%), Plasma Estradiol Level >50 pg/mL [3]: (6.3%)
- No Bleeding or Spotting, subjects (n), Plasma Estradiol Level 20-50 pg/mL [3]: 3
- No Bleeding or Spotting, subjects (n), Plasma Estradiol Level <20 pg/mL [3]: 0
- No Bleeding or Spotting, subjects (n), Plasma Estradiol Level >50 pg/mL [3]: 1
- No Bleeding, subjects (%), Plasma Estradiol Level 20-50 pg/mL [3]: (0.0%)
- No Bleeding, subjects (%), Plasma Estradiol Level <20 pg/mL [3]: (0.0%)
- No Bleeding, subjects (%), Plasma Estradiol Level >50 pg/mL [3]: (6.3%)
- No Bleeding, subjects (n), Plasma Estradiol Level 20-50 pg/mL [3]: 0
- No Bleeding, subjects (n), Plasma Estradiol Level <20 pg/mL [3]: 0
- No Bleeding, subjects (n), Plasma Estradiol Level >50 pg/mL [3]: 1
- No Bleeding or Spotting, subjects (%), Plasma Estradiol Level 20-50 pg/mL [4]: (0.0%)
- No Bleeding or Spotting, subjects (%), Plasma Estradiol Level <20 pg/mL [4]: (31.3%)
- No Bleeding or Spotting, subjects (%), Plasma Estradiol Level >50 pg/mL [4]: (0.0%)
- No Bleeding or Spotting, subjects (n), Plasma Estradiol Level 20-50 pg/mL [4]: 0
- No Bleeding or Spotting, subjects (n), Plasma Estradiol Level <20 pg/mL [4]: 5
- No Bleeding or Spotting, subjects (n), Plasma Estradiol Level >50 pg/mL [4]: 0
- No Bleeding, subjects (%), Plasma Estradiol Level 20-50 pg/mL [4]: (0.0%)
- No Bleeding, subjects (%), Plasma Estradiol Level <20 pg/mL [4]: (6.3%)
- No Bleeding, subjects (%), Plasma Estradiol Level >50 pg/mL [4]: (0.0%)
- No Bleeding, subjects (n), Plasma Estradiol Level 20-50 pg/mL [4]: 0
- No Bleeding, subjects (n), Plasma Estradiol Level <20 pg/mL [4]: 1
- No Bleeding, subjects (n), Plasma Estradiol Level >50 pg/mL [4]: 0
- No Bleeding or Spotting, subjects (%), Plasma Estradiol Level 20-50 pg/mL [5]: (34.4%)
- No Bleeding or Spotting, subjects (%), Plasma Estradiol Level <20 pg/mL [5]: (53.1%)
- No Bleeding or Spotting, subjects (%), Plasma Estradiol Level >50 pg/mL [5]: (3.1%)
- No Bleeding or Spotting, subjects (n), Plasma Estradiol Level 20-50 pg/mL [5]: 11
- No Bleeding or Spotting, subjects (n), Plasma Estradiol Level <20 pg/mL [5]: 17
- No Bleeding or Spotting, subjects (n), Plasma Estradiol Level >50 pg/mL [5]: 1
- No Bleeding, subjects (%), Plasma Estradiol Level 20-50 pg/mL [5]: (21.9%)
- No Bleeding, subjects (%), Plasma Estradiol Level <20 pg/mL [5]: (50.0%)
- No Bleeding, subjects (%), Plasma Estradiol Level >50 pg/mL [5]: (3.1%)
- No Bleeding, subjects (n), Plasma Estradiol Level 20-50 pg/mL [5]: 7
- No Bleeding, subjects (n), Plasma Estradiol Level <20 pg/mL [5]: 16
- No Bleeding, subjects (n), Plasma Estradiol Level >50 pg/mL [5]: 1
- No Bleeding or Spotting, subjects (%), Plasma Estradiol Level 20-50 pg/mL [6]: (62.5%)
- No Bleeding or Spotting, subjects (%), Plasma Estradiol Level <20 pg/mL [6]: (12.5%)
- No Bleeding or Spotting, subjects (%), Plasma Estradiol Level >50 pg/mL [6]: (6.3%)
- No Bleeding or Spotting, subjects (n), Plasma Estradiol Level 20-50 pg/mL [6]: 10
- No Bleeding or Spotting, subjects (n), Plasma Estradiol Level <20 pg/mL [6]: 2
- No Bleeding or Spotting, subjects (n), Plasma Estradiol Level >50 pg/mL [6]: 1
- No Bleeding, subjects (%), Plasma Estradiol Level 20-50 pg/mL [6]: (37.5%)
- No Bleeding, subjects (%), Plasma Estradiol Level <20 pg/mL [6]: (12.5%)
- No Bleeding, subjects (%), Plasma Estradiol Level >50 pg/mL [6]: (6.3%)
- No Bleeding, subjects (n), Plasma Estradiol Level 20-50 pg/mL [6]: 6
- No Bleeding, subjects (n), Plasma Estradiol Level <20 pg/mL [6]: 2
- No Bleeding, subjects (n), Plasma Estradiol Level >50 pg/mL [6]: 1
- No Bleeding or Spotting, subjects (%), Plasma Estradiol Level 20-50 pg/mL [7]: (6.3%)
- No Bleeding or Spotting, subjects (%), Plasma Estradiol Level <20 pg/mL [7]: (93.8%)
- No Bleeding or Spotting, subjects (%), Plasma Estradiol Level >50 pg/mL [7]: (0.0%)
- No Bleeding or Spotting, subjects (n), Plasma Estradiol Level 20-50 pg/mL [7]: 1
- No Bleeding or Spotting, subjects (n), Plasma Estradiol Level <20 pg/mL [7]: 15
- No Bleeding or Spotting, subjects (n), Plasma Estradiol Level >50 pg/mL [7]: 0
- No Bleeding, subjects (%), Plasma Estradiol Level 20-50 pg/mL [7]: (6.3%)
- No Bleeding, subjects (%), Plasma Estradiol Level <20 pg/mL [7]: (87.5%)
- No Bleeding, subjects (%), Plasma Estradiol Level >50 pg/mL [7]: (0.0%)
- No Bleeding, subjects (n), Plasma Estradiol Level 20-50 pg/mL [7]: 1
- No Bleeding, subjects (n), Plasma Estradiol Level <20 pg/mL [7]: 14
- No Bleeding, subjects (n), Plasma Estradiol Level >50 pg/mL [7]: 0
- No Bleeding or Spotting, subjects (%), Plasma Estradiol Level 20-50 pg/mL [8]: (55.2%)
- No Bleeding or Spotting, subjects (%), Plasma Estradiol Level <20 pg/mL [8]: (13.8%)
- No Bleeding or Spotting, subjects (%), Plasma Estradiol Level >50 pg/mL [8]: (20.7%)
- No Bleeding or Spotting, subjects (n), Plasma Estradiol Level 20-50 pg/mL [8]: 16
- No Bleeding or Spotting, subjects (n), Plasma Estradiol Level <20 pg/mL [8]: 4
- No Bleeding or Spotting, subjects (n), Plasma Estradiol Level >50 pg/mL [8]: 6
- No Bleeding, subjects (%), Plasma Estradiol Level 20-50 pg/mL [8]: (41.4%)
- No Bleeding, subjects (%), Plasma Estradiol Level <20 pg/mL [8]: (13.8%)
- No Bleeding, subjects (%), Plasma Estradiol Level >50 pg/mL [8]: (17.2%)
- No Bleeding, subjects (n), Plasma Estradiol Level 20-50 pg/mL [8]: 12
- No Bleeding, subjects (n), Plasma Estradiol Level <20 pg/mL [8]: 4
- No Bleeding, subjects (n), Plasma Estradiol Level >50 pg/mL [8]: 5
- No Bleeding or Spotting, subjects (%), Plasma Estradiol Level 20-50 pg/mL [9]: (64.3%)
- No Bleeding or Spotting, subjects (%), Plasma Estradiol Level <20 pg/mL [9]: (7.1%)
- No Bleeding or Spotting, subjects (%), Plasma Estradiol Level >50 pg/mL [9]: (21.4%)
